Test results taken from patent US11465987B2, “Compounds for treatment of cancer” (ONCTERNAL THERAPEUTICS, INC., priority 2012, dated 2022).
Where a name gives a salt, the structure may show the parent alone. Read-outs that look alike come from different tables or passages of the source.

Key:
[1] = test system: LNCaP human prostate cancer cell line; test: Cytotoxicity (SRB) assay, LNCaP; assay type: cell-based
Source text: (§1) Cells were stained with SRB solution.

[2] = test system: B16-F1 mouse melanoma cell line; test: Cytotoxicity (SRB) assay, B16-F1; assay type: cell-based
[3] = test system: PPC-1 human prostate cancer cell line; test: Cytotoxicity (SRB) assay, PPC-1; assay type: cell-based
Source text: as §1

[4] = test system: A375 human melanoma cell line; test: Cytotoxicity (SRB) assay, A375; assay type: cell-based
[5] = test system: DU 145 human prostate cancer cell line; test: Cytotoxicity (SRB) assay, DU 145; assay type: cell-based
Source text: as §1

[6] = test system: PC-3 human prostate cancer cell line; test: cells
Source text: as §1

[7] = test system: melanoma and prostate cancer cell lines; test: Antiproliferative activity summarised over the cell line panel (range or average); assay type: cell-based; conditions: for antiproliferative activity in words: Tables 1-3
[8] = test system: WM-164 human melanoma cell line; test: Cytotoxicity (SRB) assay, WM-164; assay type: cell-based
[9] = Homo sapiens, LNCaP, SRB assay, prostate cancer LNCaP, read-out: IC50 LNCaP
[10] = Mus musculus, B16-F1, SRB assay, mouse melanoma B16-F1, read-out: IC50 B16-F1
[11] = Homo sapiens, PPC-1, SRB assay, prostate cancer PPC-1, read-out: IC50 PPC-1
[12] = Homo sapiens, A-375, SRB assay, human melanoma A375, read-out: IC50 A375
[13] = Homo sapiens, DU-145, SRB assay, prostate cancer DU 145, read-out: IC50 DU 145
[14] = Homo sapiens, read-out: IC50 PC-3, SRB assay, prostate cancer PC-3
[15] = Homo sapiens, read-out: IC50 PC-3
[16] = Homo sapiens, read-out: IC50 ± SEM, PC-3, Table 13
[17] = Tables 11-13, read-out: IC50 (average of all seven cell lines)
[18] = Mus musculus, B16-F1, Table 12, read-out: IC50 ± SEM, B16-F1 (converted)
[19] = Homo sapiens, WM164, Table 12, read-out: IC50 ± SEM, WM164 (converted)
[20] = read-out: IC50 (range over tested cell lines)
[21] = Homo sapiens, LNCaP, Table 13A, read-out: inhibitory effects, LNCaP
[22] = Homo sapiens, PPC-1, Table 13A, read-out: inhibitory effects, PPC1
[23] = Homo sapiens, DU-145, Table 13A, read-out: inhibitory effects, DU145
[24] = Homo sapiens, read-out: inhibitory effects, PC3, Table 13A
[25] = Table 13A, read-out: inhibitory effects, LNCaP
[26] = Table 13A, read-out: inhibitory effects, PPC1
[27] = Table 13A, read-out: inhibitory effects, DU145
[28] = read-out: inhibitory effects, PC3, Table 13A
[29] = Homo sapiens, LNCaP, Table 6A, read-out: IC50 ± SEM, LNCaP (converted)
[30] = Homo sapiens, PPC-1, Table 6A, read-out: IC50 ± SEM, PPC-1 (converted)
[31] = Homo sapiens, DU-145, Table 6A, read-out: IC50 ± SEM, DU 145
[32] = Homo sapiens, read-out: IC50 ± SEM, PC-3, Table 6A
[33] = Homo sapiens, LNCaP, read-out: IC50 ± SEM, LNCaP
[34] = Homo sapiens, PPC-1, read-out: IC50 ± SEM, PPC-1
[35] = Homo sapiens, DU-145, read-out: IC50 ± SEM, DU 145
[36] = Homo sapiens, read-out: IC50 ± SEM, PC-3

## COc1cc(C(=O)c2cccc(-c3ccccc3)n2)cc(OC)c1OC [1c, (6-Phenylpyridin-2-yl)(3,4,5-trimethoxyphenyl)methanone]
[1]; [9]
  IC50: 27 ± 2 nM
[2]; [10]
  IC50: 39 ± 12 nM
[3]; [11]
  IC50: 25 ± 1 nM
[4]; [12]
  IC50: 30 ± 14 nM
[5]; [13]
  IC50: 33 ± 3 nM
[6]; [14]
  IC50: 32 ± 2 nM
[7]; range over prostate cancer cell lines, read-out: IC50 range against prostate cancer cells
  IC50: 12 to 35 nM

## COc1cc(NC(=O)c2csc(-c3ccccc3)n2)cc(OC)c1OC [2g, 2-Phenyl-N-(3,4,5-trimethoxyphenyl)thiazole-4-carboxamide]
[1]; [9]
  IC50: > 10000 nM
[6]; [14]
  IC50: > 10000 nM

## COc1cc(C(=O)c2csc(-c3ccc(N(C)C)cc3)n2)cc(OC)c1OC [2o, (2-(4-(Dimethylamino)phenyl)thiazol-4-yl)(3,4,5-trimethoxyphenyl)methanone]
[1]; [9]
  IC50: 65 nM
[2]; [10]
  IC50: 42 nM
[3]; [11]
  IC50: 73 nM
[4]; [12]
  IC50: 38 nM
[5]; [13]
  IC50: 121 nM
[6]; [14]
  IC50: 73 nM

## CNCc1ccc(-c2nc(C(=O)c3cc(OC)c(OC)c(OC)c3)cs2)cc1.Cl [2s, (2-(4-((Methylamino)methyl)phenyl)thiazol-4-yl)(3,4,5-trimethoxyphenyl)methanone hydrochloride]
[5]; Homo sapiens, SRB assay, prostate cancer DU 145, read-out: IC50 DU 145
  IC50: > 10000 nM
[6]; [15]
  IC50: > 10000 nM
[7]
  antiproliferative activity in words: abrogated activity

## COc1cc(/C=C\c2csc(-c3ccccc3)n2)cc(OC)c1OC [3a, (Z)-2-Phenyl-4-(3,4,5-trimethoxystyryl)thiazole]
[8]; Homo sapiens, WM164, read-out: IC50 WM164
  IC50: 10600 ± 5800 nM
[6]; [15]
  IC50: > 10000 nM
[7]
  antiproliferative activity in words: lost activity

## COc1cc(Sc2cccc(-c3ccccc3)c2)cc(OC)c1OC [4a, Biphenyl-3-yl(3,4,5-trimethoxyphenyl)sulfane]
[1]; [9]
  IC50: 2300 ± 200 nM
[4]; [12]
  IC50: 1600 ± 400 nM
[6]; [14]
  IC50: > 10000 nM

## COc1cc(C(=O)c2csc(Nc3ccc(C)cc3)n2)cc(OC)c1OC [5Hb, (2-(p-tolylamino)thiazol-4-yl)(3,4,5-trimethoxyphenyl)methanone hydrochloride salt]
[1]; [9]
  IC50: 35 ± 1 nM
[3]; [11]
  IC50: 36 ± 1 nM
[5]; [13]
  IC50: 35 ± 1 nM
[6]; [14]
  IC50: 38 ± 2 nM

## COc1cc(C(=O)c2cn(S(=O)(=O)c3ccccc3)c(-c3ccccc3C(F)(F)F)n2)cc(OC)c1OC [11ia, (1-(phenylsulfonyl)-2-(2-(trifluoromethyl)phenyl)-1H-imidazol-4-yl)(3,4,5-trimethoxyphenyl)methanone]
[6]; [16]
  IC50: > 10000 nM
[7]; [17]
  IC50: 1000 to 50000 nM

## O=C(c1ccc(F)cc1)c1cn(S(=O)(=O)c2ccccc2)c(-c2ccccc2C(F)(F)F)n1 [11ib, (1-(phenylsulfonyl)-2-(2-(trifluoromethyl)phenyl)-1H-imidazol-4-yl)(4-fluorophenyl)methanone]
[6]; [16]
  IC50: > 10000 nM
[7]; [17]
  IC50: 1000 to 50000 nM

## Cc1ccc(-c2nc(C(=O)c3ccc(F)cc3)c[nH]2)cc1 [12db, (4-fluorophenyl)(2-(p-tolyl)-1H-imidazol-4-yl)methanone]
[2]; [18]
  IC50: 222 nM
[8]; [19]
  IC50: 156 nM
[3]; Homo sapiens, PPC-1, Table 12, read-out: IC50 ± SEM, PPC-1 (converted)
  IC50: 54 nM
[7]; [20]
  IC50: 7.9 to 110 nM

## COc1ccc(-c2nc(C(=O)c3ccc(F)cc3)c[nH]2)cc1OC [12hb, (2-(3,4-dimethoxyphenyl)-1H-imidazol-4-yl)(4-fluorophenyl)methanone]
[2]; [18]
  IC50: 4210 nM
[8]; [19]
  IC50: 1400 nM
[6]; Homo sapiens, read-out: IC50 ± SEM, PC-3, Table 12
  IC50: 10000 nM
[7]; [17]
  IC50: 1000 to 50000 nM

## COc1cc(C(=O)c2c[nH]c(-c3ccc(O)cc3)n2)cc(OC)c1OC [12ka, (2-(4-hydroxyphenyl)-1H-imidazol-4-yl)(3,4,5-trimethoxyphenyl)methanone]
[2]; [18]
  IC50: 2400 nM
[8]; [19]
  IC50: 1800 nM
[4]; Homo sapiens, A-375, Table 12, read-out: IC50 ± SEM, A375 (converted)
  IC50: 1600 nM

## O=C(c1cc(O)c(O)c(O)c1)c1c[nH]c(-c2ccc(O)c(O)c2)n1 [13ha]
[2]; Table 12, read-out: IC50 ± SEM, B16-F1 (converted)
  IC50: > 10000 nM
[8]; Table 12, read-out: IC50 ± SEM, WM164 (converted)
  IC50: > 10000 nM
[4]; Table 12, read-out: IC50 ± SEM, A375 (converted)
  IC50: > 10000 nM

## COc1cc(C(=O)c2csc(-c3ccc4[nH]ccc4c3)n2)cc(OC)c1OC [66a]
[6]; [14]
  IC50: 7 nM
[7]; [20]
  IC50: 7 to 25 nM

## CCCn1cc(-c2ccccc2)nc1C(=O)c1cc(OC)c(OC)c(OC)c1 [70ab]
[1]; Homo sapiens, LNCaP, read-out: inhibitory effects, LNCaP
  IC50: 49.4 nM
[3]; Homo sapiens, PPC-1, read-out: inhibitory effects, PPC1
  IC50: 9.8 nM
[5]; Homo sapiens, DU-145, read-out: inhibitory effects, DU145
  IC50: 71.6 nM
[6]; Homo sapiens, read-out: inhibitory effects, PC3
  IC50: 25.6 nM

## COc1cc(C(=O)c2nc(-c3ccccc3)cn2C(C)C)cc(OC)c1OC [70ac]
[1]; [21]
  IC50: 62.2 nM
[3]; [22]
  IC50: 15 nM
[5]; [23]
  IC50: 114 nM
[6]; [24]
  IC50: 52.5 nM

## COc1cc(C(=O)c2nc(-c3ccccc3)cn2-c2ccccn2)cc(OC)c1OC [70ad]
[1]; [21]
  IC50: 19.5 nM
[3]; [22]
  IC50: 7.8 nM
[5]; [23]
  IC50: 36.3 nM

## COc1cc(C(=O)c2nc(-c3ccc(F)cc3)c[nH]2)cc(OC)c1OC [70b, (4-(4-Fluorophenyl)-1H-imidazol-2-yl)(3,4,5-trimethoxyphenyl)methanone and (5-(4-fluorophenyl)-H-imidazol-2-yl)(3,4,5-trimethoxyphenyl)methanone]
[1]; [25]
  IC50: 114 nM
[3]; [26]
  IC50: 13 nM
[5]; [27]
  IC50: 353 nM
[6]; [28]
  IC50: 196 nM

## COc1cc(C(=O)c2nc(-c3ccc(C)cc3)c[nH]2)cc(OC)c1OC [70f, (4-p-Tolyl-1H-imidazol-2-yl)(3,4,5-trimethoxyphenyl)methanone and (5-p-tolyl-H-imidazol-2-yl)(3,4,5-trimethoxyphenyl)methanone]
[1]; [25]
  IC50: 13 nM

## COc1cc(C(=O)c2nc(-c3ccc(O)cc3)c[nH]2)cc(OC)c1OC [70i, (4-(4-Hydroxyphenyl)-1H-imidazol-2-yl)(3,4,5-trimethoxyphenyl)methanone and (5-(4-hydroxyphenyl)-1H-imidazol-2-yl)(3,4,5-trimethoxyphenyl)methanone)]
[1]; [25]
  IC50: 219 nM
[3]; [26]
  IC50: 122 nM
[5]; [27]
  IC50: 518 nM
[6]; [28]
  IC50: 155 nM

## COc1cc(C(=O)c2nc(-c3ccccc3)cn2Cc2ccccc2)cc(OC)c1OC [70o, (1-Benzyl-4-phenyl-1H-imidazol-2-yl)(3,4,5-trimethoxyphenyl)methanone]
[1]; [21]
  IC50: 67 nM
[3]; [22]
  IC50: 77 nM
[5]; [23]
  IC50: 160 nM
[6]; [24]
  IC50: 72 nM

## COc1cc(C(=O)c2nc(-c3ccccc3)cn2C2CCCC2)cc(OC)c1OC [70p, (1-cyclopentyl-4-phenyl-1H-imidazol-2-yl)(3,4,5-trimethoxyphenyl)methanone]
[1]; [21]
  IC50: 51 nM
[3]; [22]
  IC50: 63 nM
[5]; [23]
  IC50: 167 nM
[6]; [24]
  IC50: 56 nM

## O=C(c1csc(-c2ccccc2)n1)c1c(F)c(F)c(F)c(F)c1F [compound 17]
[1]; [29]
  IC50: 2100 nM
[3]; [30]
  IC50: 1300 nM
[5]; [31]
  IC50: 2600 nM
[6]; [32]
  IC50: 1900 nM

## COc1ccc(C(=O)n2ccnc2-c2ccc(F)cc2)cc1 [compound 24]
[1]; Table 6A, read-out: IC50 ± SEM, LNCaP (converted)
  IC50: > 10000 nM
[8]; Table 6A, read-out: IC50 ± SEM, WM164 (converted)
  IC50: > 10000 nM

## COc1cc(C(=O)c2csc(-c3cccs3)n2)cc(OC)c1OC [compound 25]
[1]; [33]
  IC50: 48 nM
[3]; [34]
  IC50: 13 nM
[5]; [35]
  IC50: 24 nM
[6]; [36]
  IC50: 44 nM

## COc1cc(C(=O)c2csc(-c3ccc(N)cc3)n2)cc(OC)c1OC [compound 26]
[1]; [33]
  IC50: 23 nM
[3]; [34]
  IC50: 15 nM
[5]; [35]
  IC50: 16 nM
[6]; [36]
  IC50: 16 nM

## Cc1ccc(-c2nc(C(=O)c3ccc(F)cc3)cn2C(=O)c2ccc(F)cc2)cc1 [compound 29]
[1]; [29]
  IC50: 1790 nM
[3]; [30]
  IC50: > 10000 nM
[5]; [31]
  IC50: > 10000 nM
[6]; [32]
  IC50: > 10000 nM

## COc1cc(C(=O)c2cccc(-c3cc(OC)c(OC)c(OC)c3)c2)cc(OC)c1OC [compound 35]
[1]; [33]
  IC50: 1500 nM
[3]; [34]
  IC50: 15000 nM
[5]; [35]
  IC50: 21900 nM
[6]; [36]
  IC50: 40100 nM

## COc1cc(-c2cccc(CO)c2)cc(OC)c1OC [compound 39]
[1]; [29]
  IC50: 4300 nM
[3]; [30]
  IC50: 21400 nM
[5]; [31]
  IC50: 16800 nM
[6]; [32]
  IC50: 32500 nM

## COc1cc(C(=O)C2N(C)C=C(c3ccccc3)N2C)cc(OC)c1OC (stereo not drawn) [compound 105, (1,3-Dimethyl-4-phenyl-2,3-dihydro-1H-imidazol-2-yl)(3,4,5-trimethoxyphenyl)methanone]
[1]; [9]
  IC50: 4240 nM
[3]; [11]
  IC50: 5290 nM
[6]; [14]
  IC50: 3490 nM
